From patent US20230149409A1, “TREATMENT OF HUMAN PAPILLOMAVIRUS-ASSOCIATED CANCERS BY PD-L1 INHIBITORS” (priority 2021, published 2023)

What was measured:
[1] = biological target: T1, PD-⅟PD-L1 (recombinant human PD-L1 protein and human PD-1 protein) (Homo sapiens, UniProt Q9NZQ7); experiment: Homogeneous Time-Resolved Fluorescence (HTRF) PD-1/PD-L1 binding assay; conditions: 3 nM PD1, 10 nM PD-L1, 25° C., PBS pH 7.4
T1 construct: Recombinant human PD-L1 protein (19-238) with a His-tag at the C-terminus; purchased AcroBiosystems PD1-H5229 (PD-L1); PD1-H5257 (PD-1)
Description: Homogeneous Time-Resolved Fluorescence (HTRF) PD-⅟PD-L1 Binding Assay
The assays were conducted in a standard black 384-well polystyrene plate with a final volume of 20 uL. Inhibitors were first serially diluted in DMSO and then added to the plate wells before the addition of other reaction components. The final concentration of DMSO in the assay was 1%. The assays were carried out at 25° C. in the PBS buffer (pH 7.4) with 0.05% Tween-20 and 0.1% BSA. […] PD-L1 and PD-1 proteins were diluted in the assay buffer and 10 uL was added to the plate well. Plates were centrifuged and proteins were preincubated with inhibitors for 40 minutes. The incubation was followed by the addition of 10 uL of HTRF detection buffer supplemented with Europium cryptate-labeled anti-human IgG (PerkinElmer-AD0212) specific for Fc and anti-His antibody conjugated to SureLight®-Allophycocyanin (APC, PerkinElmer-AD0059H). […] Final concentrations in the assay were - 3 nM PD1, 10 nM PD-L1, 1 nM europium anti-human IgG and 20 nM anti-His-Allophycocyanin. IC50 determination was performed by fitting the curve of percent control activity versus the log of the inhibitor concentration using the GraphPad Prism 5.0 software.

[2] = tested on: PD-L1 (U2OS/PD-L1 cells, Jurkat-PD-1-SHP cells); experiment: Src Homology Region 2 Domain-containing Phosphatase (SHP) assay; format: cell-based; conditions: Homo sapiens; U2OS/PD-L1 + Jurkat-PD-1-SHP cells, 2 hours
Description: Example 1B. Src Homology Region 2 Domain-containing Phosphatase (SHP) Assay
U2OS/PD-L1 cells (DiscoveRx Corporation) were maintained in McCoy’s 5A medium with addition of 10% FBS, 0.25 µg/mL Puromycin. After removing the culture media, the cell medium was replaced with assay medium (RPMI1640 medium with 1% FBS). The U2OS/PD-L1 cells were then added in 384-well black clear bottom assay plate (CELLCOAT® Tissue Culture Plates, Greiner Bio-One) at 5000 cells per well in 20 uL assay medium. Test compounds were prepared by serial dilution in DMSO and 125 nL compound were first transferred to the 384 REMP plate well (Thermofisher) by ECHO liquid handler (Labcyte) followed with addition of 27.5 uL assay medium. 5 µL/well compounds in the assay medium were transferred to the cell plate with 0.05% DMSO in the final assay at 0.25 µM. Jurkat-PD-1-SHP cells (DiscoveRx Corporation) were cultured in RPMI1640 medium supplemented with 10% FBS, 250 µg/mL Hygromycin B, 500 µg/mL G418. After the replacement of culture media with assay medium, 5,000 Jurkat-PD-1-SHP cells in 20 µL were dispensed into each well. The assay plate was incubated at 37° C., 5% CO2 for 2 hours before 2.5 uL PathHunter reagent 1 (DiscoveRx Corporation) were added to each well. The assay plate was shaken for 1 min at 350 rpm in the dark followed with addition of 10 uL PathHunter reagent 2 (DiscoveRx Corporation). Chemiluminescent signal was recorded with TopCount reader (Perkin Elmer) after incubation at room temperature for 1 hour. Wells with DMSO were served as the positive controls and wells containing no cells were used as negative controls. IC50 determination was performed by fitting the curve of percentage of control activity versus the log of the compound concentration using the GraphPad Prism 6.0 software.

[3] = tested on: PD-L1 (PD-L1 aAPC/CHO-K1 cells, Jurkat-PD-1-NFAT effector cells); experiment: Nuclear Factor of Activated T-cells (NFAT) assay; format: cell-based; conditions: Cricetulus griseus; PD-L1 aAPC/CHO-K1 + Jurkat-PD-1-NFAT cells, 24 hours
Description: Nuclear Factor of Activated T-cells (NFAT) Assay
PD-L1 aAPC/CHO-K1cells (Promega) were maintained in F-12 medium with addition of 10% FBS, 200 µg/mL Hygromycin B, 250 µg/mL Geneticin (G418). […] The culture media of PD-L1 aAPC/CHO-K1 cells were first replaced with assay medium (RPMI1640 medium with 1% FBS). The PD-L1 aAPC/CHO-K1cells were then added in a white 384-well white clear bottom assay plate (CELLCOAT® Tissue Culture Plates, Greiner Bio-One) at 8000 per well in 10 uL assay medium. […] 5 uL compounds in the assay medium were transferred to the cells with 0.4% DMSO in the final assay at 2 µM. After removing the culture media, 10,000 Jurkat-PD-1-NFAT effector cells in 5 µL assay medium was dispensed into each well. The assay plate was incubated at 37° C., 5% CO2 for 24 hours. […] After 8 minutes incubation at room temperature, luminescence was read at with Pherastar microplate reader (BMG Labtech). The fold of induction (FOI) was calculated based on the ratio of luminescence normalized to the DMSO wells within each assay plate. The maximum percentage of induction was reported based on the ratio between the highest FOI of each compound and the maximum FOI of control compound within each assay plate. Wells with DMSO were served as the negative controls and wells containing control compound with the highest FOI were used as positive controls. EC50 determination was performed by fitting the curve of percent control activity versus the log of the compound concentration using the GraphPad Prism 6.0 software.

[4] = biological target: T2, PD-L1 on CD14+ cells in human whole blood (Homo sapiens, UniProt Q9NZQ7); experiment: PD-L1 whole blood internalization assay; format: cell-based; conditions: 1 ng/mL interferon γ, CD14+ gated, 24 hour
T2 construct: Cells were gated on CD14+ (BD Biosciences) and PD-L1 expression determined by mean fluorescence intensity; host or cells: CD14+ cells in normal human whole blood, stimulated with human interferon gamma
Description: PD-L1 Whole Blood Internalization Assay
To determine PD-L1 internalization in human whole blood, normal human blood (Biological Specialty Corp, Colmar. PA) was incubated in the presence or absence of a concentration range of test compounds and 1 ng/mL human interferon γ (R&D Systems Inc. Minn. MN) in a 96 well “2 mL Assay Block” (Corning, Corning NY) for 18-20 hours at 37 °C. Blood was then stained with PD-L1 (MIH1, eBioscience; or BD Biosciences San Jose, CA), CD14 (Life Technologies, Carlsbad, CA) for 30 minutes in the dark at room temperature. Whole Blood/red cells were lysed/fixed (lysis buffer BD Biosciences) for 5 minutes at 37 °C in the dark and then centrifuged at 1600 RPM for 5 minutes. Cells were resuspended in Stain Buffer (BD Bioscience, San Jose, CA) and transferred into 96 well round bottom plates (Coming). Cells were gated on CD14+ (BD Biosciences) and PD-L1 expression determined by mean fluorescence intensity (MFI) (BD LSRFortessa® X-20). IC50 determination was performed by fitting the curve of compound percent inhibition versus the log of the compound concentration using the GraphPad Prism 7.0 software.

T1 sequence (Q9NZQ7 19-238): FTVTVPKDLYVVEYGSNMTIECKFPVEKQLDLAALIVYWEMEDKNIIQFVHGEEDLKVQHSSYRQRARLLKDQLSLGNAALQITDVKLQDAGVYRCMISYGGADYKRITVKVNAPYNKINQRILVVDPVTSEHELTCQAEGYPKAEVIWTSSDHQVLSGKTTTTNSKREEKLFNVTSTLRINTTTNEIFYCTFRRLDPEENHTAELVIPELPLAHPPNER
T2 sequence (Q9NZQ7 19-290): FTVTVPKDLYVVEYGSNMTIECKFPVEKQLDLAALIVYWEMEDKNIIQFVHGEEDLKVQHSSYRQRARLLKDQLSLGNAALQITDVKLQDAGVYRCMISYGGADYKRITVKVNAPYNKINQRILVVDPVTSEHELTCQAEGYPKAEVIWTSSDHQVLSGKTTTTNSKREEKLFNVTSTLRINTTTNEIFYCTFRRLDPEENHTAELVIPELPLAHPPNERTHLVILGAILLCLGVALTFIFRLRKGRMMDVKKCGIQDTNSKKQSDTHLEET

SMILES	IC50 [1] [nM]	IC50 [2] [nM]	IC50 [4] [nM]	EC50 [3] [nM]
CCN(C)CC(=O)N1Cc2nc(-c3cccc(-c4cccc(NC(=O)c5nc6c(n5C)CCN(CCC5CCC(C(=O)O)CC5)C6)c4Cl)c3C)sc2C1 (stereo not drawn) [Compound 22, 4-(2-(2-(2-chloro-3′-(5-(2-(ethyl(methyl)amino)acetyl)-5,6-dihydro-4H-pyrrolo[3,4-d]thiazol-2-yl)-2′-methylbiphenyl-3-ylcarbamoyl)-1-methyl-6,7-dihydro-1H-imidazo[4,5-c]pyridin-5(4H)-yl)ethyl)cyclohexane-1-carboxylic acid]	< 10	< 10	< 500	< 100
Cc1c(Nc2nccc3cc(CN4CC[C@@H](O)C4)cnc23)cccc1-c1cccc(NC(=O)c2nc3c(n2C)CCN(CC[C@H]2CC[C@H](C(=O)O)CC2)C3)c1Cl [Compound 10, trans 4-(2-(2-(2-chloro-3′-(3-(((R)-3-hydroxypyrrolidin-1-yl)methyl)-1,7-naphthyridin-8-ylamino)-2′-methylbiphenyl-3-ylcarbamoyl)-1-methyl-6,7-dihydro-1H-imidazo[4,5-c]pyridin-5(4H)-yl)ethyl)cyclohexanecarboxylic acid]	< 10	< 10	< 100	< 100
Cc1c(Nc2nc(C(F)F)nc3cc(CN4CC[C@@H](O)C4)cnc23)cccc1-c1cccc(NC(=O)c2nc3c(n2C)CCN(CCC24CCC(C(=O)O)(CC2)C4)C3)c1Cl [Compound 34, (R)-4-(2-(2-((2-chloro-3′-((2-(difluoromethyl)-7-((3-hydroxypyrrolidin-1-yl)methyl)pyrido[3,2-d]pyrimidin-4-yl)amino)-2′-methyl-[1,1′-biphenyl]-3-yl)carbamoyl)-1-methyl-1,4,6,7-tetrahydro-5H-imidazo[4,5-c]pyridin-5-yl)ethyl)bicyclo[2.2.1]heptane-1-carboxylic acid]	< 10	< 10	< 10	< 10
CCN(C)CC(=O)N1Cc2nc(-c3cccc(-c4cccc(NC(=O)c5nc6c(n5C)CCN(C[C@H]5CC[C@@H](C(=O)O)CC5)C6)c4Cl)c3C)sc2C1 [Compound 21, cis-4-((2-(2-chloro-3′-(5-(2-(ethyl(methyl)amino)acetyl)-5,6-dihydro-4H-pyrrolo[3,4-d]thiazol-2-yl)-2′-methylbiphenyl-3-ylcarbamoyl)-1-methyl-6,7-dihydro-1H-imidazo [4,5-c]pyridin-5 (4H)-yl)methyl)cyclohexane-1-carboxylic acid]	< 10	< 10	< 100	< 100
Cc1c(NC(=O)c2nc3c(n2C)CCN(C)C3)cccc1-c1cccc(NC(=O)c2nc3c(n2C)CCN(C[C@H]2CC[C@@H](C(=O)O)CC2)C3)c1Cl [Compound 18, cis-4-((2-((2-chloro-3′-(1,5-dimethyl-4,5,6,7-tetrahydro-1H-imidazo[4,5-c]pyfidine-2-caiboxamido)-2′-methyl-[1,1′-biphenyl]-3-yl)carbamoyl)-1-methyl-1,4,6,7-tetrahydro-5H-imidazo[4,5-c]pyridin-5-yl)methyl)cyclohexane-1-carboxylic acid]	< 10	< 10	< 100	< 100

Further lines, with some results ahead:

IC50 [1] [nM]	IC50 [2] [nM]	IC50 [4] [nM]	SMILES	EC50 [3] [nM]
< 10	< 10	< 100	Cc1c(NC(=O)c2nc3c(n2C)CCN(CC[C@H]2CC[C@H](C(=O)O)CC2)C3)cccc1-c1cccc(NC(=O)c2nc3c(n2C)CCN(C)C3)c1Cl [Compound 16, trans-4-(2-(2-((2′-chloro-3′-(1,5-dimethyl-4,5,6,7-tetrahydro-1H-imidazo[4,5-c]pyfidine-2-caiboxamido)-2-methyl-[1,1′-biphenyl]-3-yl)caibamoyl)-1-methyl-1,4,6,7-tetrahydro-5H-imidazo[4,5-c]pyridin-5-yl)ethyl)cyclohexane-1-carboxylic acid]	< 100
< 10	< 10	< 100	Cc1c(NC(=O)c2nc3c(n2C)CCN(CCC24CCC(C(=O)O)(CC2)C4)C3)cccc1-c1cccc(NC(=O)c2nc3c(n2C)CCN(CCC24CCC(C(=O)O)(CC2)C4)C3)c1Cl [Compound 32, 4,4′-(((((2-chloro-2′-methyl-[1,1′-biphenyl]-3,3′-diyl)bis(azanediyl))bis(carbonyl))bis(1-methyl-1,4,6,7-tetrahydro-5H-imidazo[4,5-c]pyridine-2,5-diyl))bis(ethane-2,1-diyl))bis(bicyclo[2.2.1]heptane-1-carboxylic acid)]	< 100
< 10	< 10	< 500	Cc1c(NC(=O)c2nc3c(n2C)CCN(C[C@H]2CC[C@H](C(=O)O)CC2)C3)cccc1-c1cccc(NC(=O)c2nc3c(n2C)CCN(C)C3)c1Cl [Compound 15, trans-4-((2-(2′-chloro-3′-(1,5-dimethyl-4,5,6,7-tetrahydro-1H-imidazo[4,5-c]pyfidine-2-caiboxamido)-2-methylbiphenyl-3-ylcarbamoyl)-1-methyl-6,7-dihydro-1H-imidazo[4,5-c]pyridin-5(4H)-yl)methyl)cyclohexane-1-carboxylic acid]	< 100
< 10	< 10	< 10	Cc1c(NC(=O)c2ccc(CNCCO)cn2)cccc1-c1cccc(NC(=O)c2ccc(CNCCO)cn2)c1Cl [Compound 7, N,N′-(2-chloro-2′-methylbiphenyl-3,3′-diyl)bis(5-((2-hydroxyethylamino)methyl)picolinamide)]	< 100
